The record followed here is US12152038B2, “Vasopressin receptor antagonists and products and methods related thereto” (Neumora Therapeutics, Inc., priority 2017, dated 2024).

pIC50: −log10 of the molar value.

A word on the pIC50: it is the IC50 on a negative log10 scale, so that one unit is a factor of ten.

This assay has as its target T1, human Arginine Vasopressin Receptor 1b (AVPR1b) (Homo sapiens, UniProt P47901).
T1 construct: expressed in transfected cells; host or cells: CHO (CHO-AVPR1b, kept under G418 selection)
T1 sequence (P47901 1-424): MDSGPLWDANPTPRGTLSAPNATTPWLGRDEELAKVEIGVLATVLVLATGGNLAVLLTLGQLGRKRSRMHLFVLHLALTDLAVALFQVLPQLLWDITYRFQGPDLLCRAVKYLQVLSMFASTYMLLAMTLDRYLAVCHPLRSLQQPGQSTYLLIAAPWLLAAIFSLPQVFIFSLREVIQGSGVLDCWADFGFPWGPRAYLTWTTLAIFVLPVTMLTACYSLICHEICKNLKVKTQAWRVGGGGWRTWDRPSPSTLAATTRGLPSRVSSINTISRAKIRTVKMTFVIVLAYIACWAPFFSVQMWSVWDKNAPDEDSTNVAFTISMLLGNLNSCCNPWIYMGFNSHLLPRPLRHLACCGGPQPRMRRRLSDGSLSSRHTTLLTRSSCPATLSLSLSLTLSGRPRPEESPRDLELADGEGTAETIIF
The experiment in a line: Vasopressin V1b receptor antagonist assay (FLIPR calcium, CHO-AVPR1b cells). The format is cell-based. The procedure: The purpose of the assay was to determine the inhibitory effect of synthesized compounds on the Vasopressin V1b receptor. The assay was performed in Chinese Hamster Ovary (CHO) cells expressing the human Arginine Vasopressin Receptor 1b (AVPR1b). Arginine Vasopressin (AVP) evokes an increase in intracellular calcium in CHO-AVPR1b cells which is measured in a fluorescence assay on the FLIPR^TETRA using calcium sensitive dyes. Test compounds were assessed for their ability to affect the magnitude of the response to AVP, with antagonists showing a concentration-dependent reduction in the AVP-mediated fluorescence.
CHO-AVPR1b cells were maintained in routine culture in T175 Flasks at 37° C., 5% CO2. The growth medium consisted of Ham's F12 media supplemented with 10% v/v fetal bovine serum, 1× non-essential amino acids, and 0.4 mg/ml Geneticin G418.
Cells were harvested from T175 flasks when they were 80-90% confluent by first washing the cell monolayer with PBS and then dissociated using trypsin 0.05%/EDTA (3 mL for a T175 Flask). The flasks were incubated at room temperature until the cells detached. To the cell suspension, 10 ml of growth media was added and the cell density determined using the Vi-Cell automated cell counter. The cells were spun at 1000 rpm for 3 minutes, then the supernatant was carefully removed and discarded. The cell pellet was re-suspended at 6.0e^5 cells/ml in growth media. 25 μL of cells in growth media was dispensed into each well (15,000 cells per well) of a poly-D-lysine coated black, clear bottomed, 384-well plate. The plates were incubated at 37° C., 5% CO2 overnight.
At the start of each assay day, the potency of AVP was assessed and an EC80 concentration determined for subsequent compound profiling. Assays were performed using a two-step addition protocol on the FLIPR^TETRA; first addition of 5 μl of control or test compound at 10× final in assay buffer with 15 min incubation at 37° C., 5% CO2 followed by 10 μl of AVP at 6× final concentration in assay buffer. Changes in fluorescence were monitored for 3 min after both additions on the FLIPR^TETRA using 470-495 nm excitation and 515-575 nm emission wavelengths. The assay buffer consisted of HBSS (+Ca/+Mg) supplemented with 20 mM HEPES, and for the preparation of the AVP agonist only, 0.1% w/v bovine serum albumin. The assay was initiated by the removal of growth media from the cells and replacement with 45 μl of Calcium-6 dye (Molecular Devices) prepared at 1× in assay buffer. Cells were loaded with dye for 60-90 min at 37° C., 5% CO2 before initiation of the FLIPR^TETRA protocol. […] For compound profiling, test compounds were first serially diluted in DMSO (10-point curve, 1:3 dilutions) then diluted 33.3-fold in assay buffer prior to addition to the dye loaded cells on the FLIPR^TETRA. At the end of the incubation period 10 μl of AVP in assay buffer containing 0.1% BSA was added at the previously determined EC80 concentration.
In-plate controls for the assay included a Nelivaptan concentration-response curve as the reference V1b antagonist and an AVP concentration-response curve to confirm the reproducibility of the EC80 used for the compound challenge.
Regarding `Cc1cnc(N2CC3(CN(C(=O)N4c5ccc(Cl)cc5OCC4C)C3)C2)nc1` (stereo not drawn) [20-13], the pIC50 is at most 6.00. In the case of `O=C(N1CC2(C1)CN(c1cnccn1)C2)N1CCOc2cc(Cl)ccc21` [8-3] it was at most 6.00; in that of `O=C(N1CC2(C1)CN(c1ccccn1)C2)N1CCc2cc(Cl)ccc21` [1-77], at most 6.00. In the case of `CC1COc2cc(F)ccc2N1C(=O)N1CC2(C1)CN(c1ccc(F)cn1)C2` (single isomer, unassigned) [12-1-B], the pIC50 is at most 6.00. Regarding `CC1CN(C(=O)N2CC3(C2)CN(c2ccc(F)cn2)C3)c2ccc(F)cc2O1` (single isomer, unassigned) [9-4-B], the pIC50 was at most 6.00. In the case of `CC1COc2cc(Cl)ccc2N1C(=O)N1CC2(C1)CN(c1cc(C#N)ccn1)C2` (single isomer, unassigned) [20-6-B] it was at most 6.00.

For `O=C(N1CC2(C1)CN(c1ccc(F)cn1)C2)N1CCOc2cc(F)c(F)cc21` [9-6], the pIC50 is at most 6.00. In the case of `Cc1cncc(N2CC3(CN(C(=O)N4c5ccc(F)cc5OCC4C)C3)C2)n1` (single isomer, unassigned) [20-2-A] it was at most 6.00; in that of `O=C(N1CC2(C1)CN(c1ncc(F)cn1)C2)N1CCOc2cc(Cl)ccc21` [4-2], at most 6.00. In the case of `CC1COc2cc(Cl)ccc2N1C(=O)N1CC2(C1)CN(c1cccnc1)C2` (single isomer, unassigned) [20-1-B] it was at most 6.00. In the case of `Cc1nccnc1N1CC2(CN(C(=O)N3c4ccc(Cl)cc4OCC3C)C2)C1` (single isomer, unassigned) [20-10-A] it was at most 6.00; in that of `O=C(N1CC2(C1)CN(c1cnccn1)C2)N1CCOCc2cc(Cl)ccc21` [8-13], at most 6.00.

Regarding `O=C(N1CC2(C1)CN(c1ncccn1)C2)N1CCOc2cc(Cl)ccc21` [1-4], the pIC50 was at most 6.00. In the case of `CC1COc2cc(F)ccc2N1C(=O)N1CC2(C1)CN(c1ccc(F)cn1)C2` (stereo not drawn) [12-1, (7-fluoro-3-methyl-2,3-dihydro-4H-benzo[b][1,4]oxazin-4-yl)(6-(5-fluoropyridin-2-yl)-2,6-diazaspiro[3.3]heptan-2-yl)methanone] it was at most 6.00. In the case of `Cc1cncc(N2CC3(CN(C(=O)N4c5ccc(F)cc5OCC4C)C3)C2)n1` (single isomer, unassigned) [20-2-B] it was at most 6.00; in that of `O=C(N1CC2(C1)CN(c1cnccn1)C2)N1CCc2cc(Cl)ccc21` [8-14], at most 6.00. `O=C(N1CC2(C1)CN(c1cc(F)ccn1)C2)N1CCc2cc(Cl)ccc21` [1-79]: the pIC50 was at most 6.00. In the case of `COc1ccnc(N2CC3(CN(C(=O)N4c5ccc(Cl)cc5OCC4C)C3)C2)n1` (stereo not drawn) [20-9] it was at most 6.00. In the case of `CC1COc2cc(Cl)c(F)cc2N1C(=O)N1CC2(C1)CN(c1cccnc1)C2` (stereo not drawn) [19-6] it was at most 6.00. In the case of `O=C(N1CC2(C1)CN(c1cccnn1)C2)N1CCOc2cc(Cl)c(F)cc21` [1-81] it was at most 6.00; in that of `CC1CN(C(=O)N2CC3(C2)CN(c2ccc(F)cn2)C3)c2ccc(Cl)cc2O1` (single isomer, unassigned) [9-3-A], at most 6.00. As to `CC1COc2cc(Cl)c(F)cc2N1C(=O)N1CC2(C1)CN(c1cccnn1)C2` (single isomer, unassigned) [19-4-A], the pIC50 is at most 6.00.

In the case of `CC1COc2cc(Cl)ccc2N1C(=O)N1CC2(C1)CN(c1ncccn1)C2` (single isomer, unassigned) [1-83-B, (7-chloro-3-methyl-2,3-dihydro-4H-benzo[b][1,4]oxazin-4-yl)(6-(pyrimidin-2-yl)-2,6-diazaspiro[3.3]heptan-2-yl)methanone], the pIC50 was at most 6.00. Take `O=C(N1CC2(C1)CN(c1ncccc1F)C2)N1CCc2cc(Cl)ccc21` [1-76]: the negative-log IC50 (pIC50) was at most 6.00. In the case of `CC1Cc2cc(Cl)ccc2N1C(=O)N1CC2(C1)CN(c1ccc(F)cn1)C2` (stereo not drawn) [8-16] it was at most 6.00. In the case of `CC1COc2cc(F)c(F)cc2N1C(=O)N1CC2(C1)CN(c1ccc(F)cn1)C2` (stereo not drawn) [19-5] it was at most 6.00; in that of `Cc1nccnc1N1CC2(CN(C(=O)N3c4ccc(Cl)cc4OCC3C)C2)C1` (stereo not drawn) [20-10], at most 6.00. In the case of `CC1COc2cc(F)ccc2N1C(=O)N1CC2(C1)CN(c1ncccn1)C2` (stereo not drawn) [18-1, (7-fluoro-3-methyl-2,3-dihydro-4H-benzo[b][1,4]oxazin-4-yl)(6-(pyrimidin-2-yl)-2,6-diazaspiro[3.3]heptan-2-yl)methanone] it was at most 6.00; in that of `CC1COc2cc(Cl)ccc2N1C(=O)N1CC2(C1)CN(c1cccnn1)C2` (single isomer, unassigned) [9-1-B], at most 6.00; in that of `CC1COc2cc(F)c(F)cc2N1C(=O)N1CC2(C1)CN(c1ncccn1)C2` (stereo not drawn) [19-1, (6,7-difluoro-3-methyl-2,3-dihydro-4H-benzo[b][1,4]oxazin-4-yl)(6-(pyrimidin-2-yl)-2,6-diazaspiro[3.3]heptan-2-yl)methanone], at most 6.00. As for `Cc1cccnc1N1CC2(CN(C(=O)N3CCOc4cc(Cl)ccc43)C2)C1` [1-5], the pIC50 was at most 6.00. In the case of `CC1COc2cc(Cl)c(F)cc2N1C(=O)N1CC2(C1)CN(c1ncccn1)C2` (stereo not drawn) [19-2] it was at most 6.00; in that of `O=C(N1CC2(C1)CN(c1cnccn1)C2)N1CCC(O)c2cc(Cl)ccc21` (stereo not drawn) [13-3], at most 6.00. In the case of `COc1ccc2c(c1)OCCN2C(=O)N1CC2(C1)CN(c1ccc(F)cn1)C2` [9-2] it was at most 6.00. In the case of `Cc1ccnc(N2CC3(CN(C(=O)N4c5ccc(F)cc5OCC4C)C3)C2)c1` (single isomer, unassigned) [20-4-B] it was at most 6.00. `CC1COc2cc(Cl)ccc2N1C(=O)N1CC2(C1)CN(c1cccnn1)C2` (stereo not drawn) [9-1, (7-chloro-3-methyl-2,3-dihydro-4H-benzo[b][1,4]oxazin-4-yl)(6-(pyridazin-3-yl)-2,6-diazaspiro[3.3]heptan-2-yl)methanone]: the pIC50 was at most 6.00.

On to `COc1ccnc(N2CC3(CN(C(=O)N4c5ccc(Cl)cc5OCC4C)C3)C2)c1` (stereo not drawn) [20-8], for which the pIC50 is at most 6.00. As for `Cc1cnc(N2CC3(CN(C(=O)N4c5ccc(Cl)cc5OCC4C)C3)C2)cn1` (single isomer, unassigned) [20-5-B], the pIC50 is at most 6.00. In the case of `Cc1nc(N2CC3(CN(C(=O)N4c5ccc(Cl)cc5OCC4C)C3)C2)ncc1F` (stereo not drawn) [20-7] it was at most 6.00; in that of `O=C(N1CC2(C1)CN(c1ccc(F)cn1)C2)N1CCC(O)c2cc(Cl)ccc21` (stereo not drawn) [13-1, (6-chloro-4-hydroxy-3,4-dihydroquinolin-1(2H)-yl)(6-(5-fluoropyridin-2-yl)-2,6-diazaspiro[3.3]heptan-2-yl)methanone], at most 6.00; in that of `COc1ccnc(N2CC3(CN(C(=O)N4c5ccc(Cl)cc5OCC4C)C3)C2)c1` (single isomer, unassigned) [20-8-B], at most 6.00. In the case of `O=C(N1CC2(C1)CN(c1cccc(F)n1)C2)N1CCc2cc(Cl)ccc21` [1-78] it was at most 6.00. In the case of `O=C(N1CC2(C1)CN(c1ccc(F)cn1)C2)N1CCC(F)c2cc(Cl)ccc21` (stereo not drawn) [14-1, (6-chloro-4-fluoro-3,4-dihydroquinolin-1(2H)-yl)(6-(5-fluoropyridin-2-yl)-2,6-diazaspiro[3.3]heptan-2-yl)methanone] it was at most 6.00; in that of `O=C(N1CC2(C1)CN(c1ccc(F)cn1)C2)N1CCc2cc(Cl)ccc21` [8-11], at most 6.00; in that of `Cc1ccnc(N2CC3(CN(C(=O)N4c5ccc(Cl)cc5OCC4C)C3)C2)c1` (stereo not drawn) [20-11], at most 6.00.
